Key:
AChE (from electric eel) = target: T1, AChE (from electric eel) (Electrophorus electricus, UniProt O42275); test: biochemical; conditions: AChE from electric eel; mean ± SD of three experiments; read-out: AChE Inhibition (IC50)
T1 construct: AChE (from electric eel); purchased Sigma Chemical Company (St. Louis, MO, USA)
Procedure: (§1) The ChE inhibitory activity of the test compounds was determined using the modified Ellman’s method. The compounds were dissolved in DMSO (10 mmol/L) and then diluted with PB (phosphate buffer) solution to attain a range of final concentrations. […] Briefly, 100 μL of different concentrations of the test or standard compounds and 100 μL of AChE/BuChE (0.5 U/mL) were added into 48-well plates and then co-incubated at 37 °C for 30 min. […] All concentrations mentioned are final.

[1] = target: T2, BuChE (from equine serum) (Equus caballus, UniProt P81908); test: biochemical; conditions: mean ± SD of three experiments, read-out: BuChE Inhibition (IC50)
T2 construct: BuChE (from equine serum); purchased Sigma Chemical Company (St. Louis, MO, USA); host or cells: equine serum
Procedure: as §1

H2O2-induced PC12 cells = test: Neuroprotection against H2O2-induced PC12 cell injury (MTT); type: cell-based; conditions: H2O2 250 μM, mean ± SEM
Procedure: Neuroprotection assay is similar to cytotoxicity. Oxidative cellular damage caused by H2O2 has become one of the important methods to study oxidative damage in neural cells. PC12 cells were seeded into a 96-well plate at a density of 5.0 × 10^3 cells per well. After the cells were incubated overnight, the old medium was discarded. […] After incubating overnight, 20 μL of MTT solution (5 mg/mL, Sigma-Aldrich) was added per well, and the cells were incubated for an additional 4 h. Afterwards, the supernatant was removed and 150 μL of DMSO was added. The 96-well plate was placed on the shaker for 10–15 min, and then the absorbance at 492 nm was measured by a microplate reader.

PC12 cells = test: Cytotoxicity in PC12 cells (MTT); type: cell-based
Procedure: The cytotoxicity and neuroprotective effects of the compounds on PC12 cells were evaluated by MTT assay. PC12 cells were seeded into a 96-well plate at a density of 5.0 × 10^3 cells per well. After the cells were incubated overnight, the old medium was discarded. The cells were incubated for another 24 h with fresh medium containing compounds at a concentration of 30 or 50 μM. A total of 20 μL of MTT solution (5 mg/mL, Sigma-Aldrich, Shanghai, China) was then added per well, and the cells were incubated for an additional 4 h. Afterwards, the supernatant was removed and 150 μL of DMSO was added to solubilize formazan crystals. The 96-well plate was placed on the shaker for 10–15 min, and then the absorbance at 492 nm was measured by a microplate reader.

DPPH radical scavenging = type: physicochemical; conditions: vs no-compound group
Procedure: DPPH is a commercially available stable organic nitrogen radical with maximum UV absorption at 515 nm. After reduction, the color of the solution fades (absorbance decreases). Therefore, this method was used to evaluate the antioxidant capacity of the compounds. In short, 50 μL of DPPH (140 μM) and 50 μL of different concentrations (10, 100, and 1000 μM) of compound 4h were added together in a 96-well plate and then incubated in the dark at 37 °C for 2 h. The absorbance was measured at 515 nm through the multifunctional microplate reader. The scavenging rate (SR) of DPPH radicals was calculated by the following formula: SR = (1 − Ac/A0) × 100%, where “Ac” is the absorbance of DPPH and the compound solution incubating, and “A0” is the absorbance of the DPPH radical-ethanol solution alone. The experimental results are expressed as the average of three tests.

Aβ1-42 = Aβ1-42 (Homo sapiens, UniProt P05067); test: Self-induced Aβ1-42 aggregation, thioflavin T fluorescence; type: biochemical; design: final concentrations of 20 μM of Aβ1-42 and 100 μM of test compound; purchased Beyotime Institute of Biotechnology; conditions: read-out: Inhibition of Self-Induced Aβ Aggregation (%)
Procedure: The inhibitory effect of compounds on Aβ42 was determined by Thioflavin T (ThT) fluorescence assay. In short, the dilution of Aβ42 solution (Beyotime Biotechnology, Hang Zhou, China) and test compounds was carried out with phosphate buffer (50 mM, pH 7.4) to obtain final concentrations of 20 μM of Aβ1-42 and 100 μM of test compound, such as curcumin (20 μM). The mixture was incubated in 96-well plates at room temperature for 48 h in the dark. When the incubation was complete, the samples were diluted to 200 µL (final volume) with glycine–NaOH buffer (50 mM, pH 8.0) containing 5 μM ThT.

BuChE = target: T3, BuChE (Equus caballus, UniProt P81908); test: Reversibility of BuChE inhibition, dilution method; type: biochemical; conditions: control 100
T3 construct: BuChE (from equine serum); purchased Sigma Chemical Company (St. Louis, MO, USA); host or cells: equine serum
Procedure: The activities of the diluted residual enzymes were measured by Ellman’s modified method.
Reversibility studies were performed using a modified Ellman’s dilution method to measure the activity of the diluted residual enzyme. The AChE/BuChE (0.5 U/mL), ATCI/BTCI (0.01 M) and DTNB (0.01 M) were diluted with phosphate buffer pH = 7.4. […] At the end of incubation, 20 μL of DTNB solution was added to them. […] All the measured results are expressed as the mean ± SEM of the three independent experiments.

in vitro = in vitro ADME, SD rats; conditions: SD rat liver microsomes
Procedure: The incubation was terminated at different time points by adding 0.5 mL of ice-cold CH3CN. A parallel incubation was performed in the absence of a NADPH-regenerating system with microsomes as the negative control, and the reactions were terminated after the corresponding time incubation. After centrifugation with 12,500 rpm at 4 °C for 10 min, the supernatant was directly analyzed by the HPLC UV systems (Agilent HPLC 1200 instrument). Three independent experiments were performed in triplicate.

SY5Y cells = test: H2O2-induced intracellular ROS in SY5Y cells (DCFH-DA); type: cell-based; conditions: 100 μM, vs untreated control 100, H2O2 group 151.76
Procedure: A 2’, 7’-dichlorofluorescein diacetate (DCFH-DA, Sigma Aldrich) probe was applied to determine intracellular ROS production. It can penetrate cells and be rapidly oxidized by intracellular ROS to highly fluorescent 2′,7′-dichlorofluorescein (DCF). Intracellular fluorescence intensity is proportional to intracellular ROS levels. PC12 cells or SY5Y cells were seeded into a black 96-well plate at a density of 1.0 × 10^4 cells per well. After the cells were incubated overnight, the old medium was discarded. PC12 cells or SY5Y cells were cultured in a medium containing test compound 4h with or without various concentrations (1, 7.5, 15, 30, and 50 μM) for 6 h. […] Then, they were washed again with PBS, then DCFH-DA […] probe was added to each well and incubated at 37 °C for 1 h. After the cells were washed 3 times, the fluorescence intensity was measured in a Synergy HTX fluorescence microplate reader (λex = 485 nm, λem = 528 nm).

T1 sequence (O42275 24-633): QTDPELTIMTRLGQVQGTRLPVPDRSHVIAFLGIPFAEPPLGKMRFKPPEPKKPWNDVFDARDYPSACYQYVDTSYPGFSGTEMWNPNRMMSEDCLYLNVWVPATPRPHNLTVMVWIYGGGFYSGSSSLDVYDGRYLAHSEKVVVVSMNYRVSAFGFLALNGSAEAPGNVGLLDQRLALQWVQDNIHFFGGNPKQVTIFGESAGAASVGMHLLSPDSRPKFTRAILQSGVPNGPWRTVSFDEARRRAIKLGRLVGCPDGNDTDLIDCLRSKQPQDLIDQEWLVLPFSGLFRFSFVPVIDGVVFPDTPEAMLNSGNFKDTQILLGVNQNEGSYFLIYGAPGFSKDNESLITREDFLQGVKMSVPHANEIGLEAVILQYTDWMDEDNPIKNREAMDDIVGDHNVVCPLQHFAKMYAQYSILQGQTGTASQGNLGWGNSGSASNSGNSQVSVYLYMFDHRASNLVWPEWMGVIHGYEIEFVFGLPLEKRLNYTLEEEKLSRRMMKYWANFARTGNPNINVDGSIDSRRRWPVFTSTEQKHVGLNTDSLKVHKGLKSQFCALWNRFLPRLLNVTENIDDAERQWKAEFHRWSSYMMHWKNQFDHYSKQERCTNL
T2 sequence (P81908 whole entry): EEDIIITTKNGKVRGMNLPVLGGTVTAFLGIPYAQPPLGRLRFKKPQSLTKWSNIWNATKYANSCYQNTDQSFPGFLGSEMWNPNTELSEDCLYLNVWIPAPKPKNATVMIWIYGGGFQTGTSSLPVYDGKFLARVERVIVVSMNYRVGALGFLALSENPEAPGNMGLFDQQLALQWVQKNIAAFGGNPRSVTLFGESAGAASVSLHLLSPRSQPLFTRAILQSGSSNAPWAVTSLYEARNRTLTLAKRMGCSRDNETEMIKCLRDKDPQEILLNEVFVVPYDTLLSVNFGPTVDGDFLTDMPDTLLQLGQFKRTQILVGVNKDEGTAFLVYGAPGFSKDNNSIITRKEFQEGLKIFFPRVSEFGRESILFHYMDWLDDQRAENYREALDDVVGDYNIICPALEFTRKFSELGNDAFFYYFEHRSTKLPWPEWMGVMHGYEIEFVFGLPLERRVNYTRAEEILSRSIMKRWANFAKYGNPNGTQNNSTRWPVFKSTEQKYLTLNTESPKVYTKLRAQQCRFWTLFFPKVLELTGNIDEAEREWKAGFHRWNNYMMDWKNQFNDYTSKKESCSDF
T3 sequence (P81908 whole entry): as above
Sequence of Aβ1-42 (P05067 672-713 limits assumed): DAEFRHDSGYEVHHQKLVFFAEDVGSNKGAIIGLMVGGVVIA

Row | Compound | IC50 (AChE (from electric eel)) [µM] | IC50 [1] [µM] | H2O2-Induced PC12 Cell Viability (% of Control) (H2O2-induced PC12 cells; compound 10 μM) | H2O2-Induced PC12 Cell Viability (% of Control) (H2O2-induced PC12 cells; compound 30 μM) | Cell Viability (% of Control) (PC12 cells; compound 30 μM) | Cell Viability (% of Control) (PC12 cells; compound 50 μM) | other results
1 | O=C1c2ccccc2-n2c1nc1ccc(NS(=O)(=O)c3ccccc3OC(F)(F)F)cc1c2=O [8n] | 42 ± 1.7 | > 50 | 38.94 ± 1.5 % of Control | 49.96 ± 0.8 % of Control | 99.2 ± 1.9 % of Control | 98.3 ± 2.7 % of Control | 
2 | O=C1c2ccccc2-n2c1nc1ccc(NS(=O)(=O)c3ccccc3C(F)(F)F)cc1c2=O [8o] | 8.86 ± 0.76 | > 50 | 42.56 ± 2.1 % of Control | 54.6 ± 3.8 % of Control | 99.7 ± 2.4 % of Control | 99.4 ± 1.1 % of Control | 
3 | O=C1c2ccccc2-n2c1nc1ccc(NS(=O)(=O)c3c(Cl)cccc3Cl)cc1c2=O [8p] | > 50 | > 50 | 42.32 ± 0.7 % of Control | 50.5 ± 0.5 % of Control | 99.6 ± 2.7 % of Control | 98.2 ± 1.7 % of Control | 
4 | O=C1O[C@H]([C@@H](O)CO)C(O)=C1O [AA, Ascorbic acid, reference compound] |  |  |  |  |  |  | Concentration of DPPH (%) (DPPH radical scavenging; 10 μM compound): 77.43 ± 2.76%; Concentration of DPPH (%) (DPPH radical scavenging; 100 μM compound): 58.10 ± 3.42%; Concentration of DPPH (%) (DPPH radical scavenging; 1000 μM compound): 24.2 ± 1.85%
5 | COc1cc(/C=C/C(=O)CC(=O)/C=C/c2ccc(O)c(OC)c2)ccc1O [Curcumin] |  |  |  |  |  |  | inhibition at 20 µM (Aβ1-42; curcumin 20 μM (text b32), ThT, 48 h): 55.4 ± 2.31%
6 | COc1cc2c(cc1OC)C(=O)C(CC1CCN(Cc3ccccc3)CC1)C2 (stereo not shown) [Donepezil, reference compound] |  |  |  |  |  |  | BuChE activity after dilution (reversibility) (BuChE; final inhibitor 0.1 × IC50 after 100-fold dilution): 94.1 ± 0.61; BuChE activity after dilution (reversibility) (BuChE; final inhibitor 1 × IC50 after 100-fold dilution): 89.4 ± 1.49; inhibition at 100 µM (Aβ1-42): 41.2 ± 1.87%
7 | C[C@]12CC[C@H]3[C@@H](CCC4=CC(=O)CC[C@@]43C)[C@@H]1CC[C@@H]2O [Testosterone, reference compound] |  |  |  |  |  |  | K (in vitro): 0.2593 ± 0.04409 min⁻¹; T1/2 (in vitro): 2.4 ± 0.5 min
8 | Cc1c(C)c2c(c(C)c1O)CCC(C)(C(=O)O)O2 (stereo not shown) [Trolox] |  |  |  |  |  |  | ROS in SY5Y cells (%) (SY5Y cells): 126.06 ± 2.68%

Reference: PMC10610214 (Pharmaceuticals, 2023)
